Laboratory results taken from ChEMBL document CHEMBL4342522 (J Med Chem, 2020).

Tests used:
[1] = Tmax in dog at 1 mg/kg, po; type: ADME, organism-based, Canis lupus familiaris; settings: in vivo
[2] = Fraction of drug absorbed in mouse portal vein in dog at 1 mg/kg, po; type: ADME, organism-based, Canis lupus familiaris; settings: in vivo
[3] = Half life in mouse at 1 mg/kg, po; type: ADME, organism-based; settings: in vivo
[4] = Half life in dog at 0.3 mg/kg, po; type: ADME, organism-based, Canis lupus familiaris; settings: in vivo
[5] = Half life in dog at 0.1 mg/kg, iv; type: ADME, organism-based, Canis lupus familiaris; settings: in vivo
[6] = system: NCI-H1299; test: Antiproliferative activity against human H1299 cells assessed as reduction in cell viability after 5 days by CellTiter-Glo assay; type: functional, cell-based; settings: NCI-H1299, 120 h
[7] = AUC in monkey at 0.3 mg/kg, po; type: ADME, organism-based, Macaca mulatta; settings: rhesus monkey, in vivo
[8] = Fraction of drug absorbed in mouse portal vein in rat at 1 mg/kg, po; type: ADME, organism-based; settings: in vivo
[9] = Clearance in rat plasma at 1 mg/kg, iv; type: ADME, organism-based
[10] = Cmax in monkey at 1 mg/kg, po; type: ADME, organism-based, Macaca mulatta; set-up: dose 1 mg/kg, route oral; settings: rhesus monkey, in vivo
[11] = Unbound hepatic clearance in mouse liver microsomes; type: ADME, Microsome
[12] = Fraction of drug absorbed in mouse portal vein in mouse at 1 mg/kg, po; type: ADME, organism-based; settings: in vivo
[13] = AUC in rat at 1 mg/kg, iv; type: ADME, organism-based; settings: in vivo
[14] = AUC in dog at 0.3 mg/kg, po; type: ADME, organism-based, Canis lupus familiaris; settings: in vivo
[15] = Permeability in dog MDCK cells by PAMPA; type: ADME, cell-based, Canis lupus familiaris; settings: read-out: permeability
[16] = Clearance in monkey plasma at 0.3 mg/kg, iv; type: ADME, organism-based, Macaca mulatta; settings: rhesus monkey
[17] = molecular target: T1, Bromodomain testis-specific protein (Homo sapiens, UniProt Q58F21); test: Inhibition of BRDT BD1 (unknown origin) after 1 hr by TR-FRET assay
[18] = Oral bioavailability in rat at 1 mg/kg; type: ADME, organism-based; settings: in vivo
[19] = AUC in monkey at 0.3 mg/kg, iv; type: ADME, organism-based, Macaca mulatta; settings: rhesus monkey, in vivo
[20] = Volume of distribution at steady state in mouse at 1 mg/kg, iv; type: ADME, organism-based; settings: in vivo, read-out: Vdss
[21] = molecular target: T1, Bromodomain testis-specific protein; test: Inhibition of BRDT BD2 (unknown origin) after 1 hr by TR-FRET assay
[22] = Half life in rat at 1 mg/kg, iv; type: ADME, organism-based; settings: in vivo
[23] = AUC in dog at 0.1 mg/kg, iv; type: ADME, organism-based, Canis lupus familiaris; settings: in vivo
[24] = Tmax in monkey at 1 mg/kg, po; type: ADME, organism-based, Macaca mulatta; settings: rhesus monkey, in vivo
[25] = Unbound hepatic clearance in human liver microsomes; type: ADME, Microsome
[26] = AUC in rat at 1 mg/kg, po; type: ADME, organism-based; settings: in vivo
[27] = Half life in mouse at 1 mg/kg, iv; type: ADME, organism-based; settings: in vivo
[28] = Volume of distribution at steady state in rat at 1 mg/kg, iv; type: ADME, organism-based; settings: in vivo, read-out: Vdss
[29] = Tmax in rat at 1 mg/kg, po; type: ADME, organism-based; settings: in vivo
[30] = Oral bioavailability in monkey at 0.3 mg/kg; type: ADME, organism-based, Macaca mulatta; settings: rhesus monkey, in vivo
[31] = Half life in monkey at 0.3 mg/kg, iv; type: ADME, organism-based, Macaca mulatta; settings: rhesus monkey, in vivo
[32] = Tmax in mouse at 1 mg/kg, po; type: ADME, organism-based; settings: in vivo
[33] = Cmax in dog at 1 mg/kg, po; type: ADME, organism-based, Canis lupus familiaris; set-up: dose 1 mg/kg, route oral; settings: in vivo
[34] = AUC in mouse at 1 mg/kg, iv; type: ADME, organism-based; settings: in vivo
[35] = Cmax in rat at 1 mg/kg, po; type: ADME, organism-based; set-up: dose 1 mg/kg, route oral; settings: in vivo
[36] = Oral bioavailability in dog at 0.3 mg/kg; type: ADME, organism-based, Canis lupus familiaris; settings: in vivo
[37] = system: SKM-1; test: Antiproliferative activity against human SKM1 cells assessed as reduction in cell viability after 5 days by CellTiter-Glo assay; type: functional, cell-based; settings: SKM-1, 120 h
[38] = AUC in mouse at 1 mg/kg, po; type: ADME, organism-based; settings: in vivo
[39] = Volume of drug distribution in monkey at 0.3 mg/kg, iv; type: ADME, organism-based, Macaca mulatta; settings: rhesus monkey, in vivo, read-out: Vdss
[40] = Fraction of drug absorbed in mouse portal vein in monkey at 1 mg/kg, po; type: ADME, organism-based, Macaca mulatta; settings: rhesus monkey, in vivo
[41] = Clearance in dog plasma at 0.1 mg/kg, iv; type: ADME, organism-based, Canis lupus familiaris
[42] = Cmax in mouse at 1 mg/kg, po; type: ADME, organism-based; set-up: dose 1 mg/kg, route oral; settings: in vivo
[43] = Clearance in mouse plasma at 1 mg/kg, iv; type: ADME, organism-based
[44] = Oral bioavailability in mouse at 1 mg/kg; type: ADME, organism-based; settings: in vivo
[45] = Half life in monkey at 0.3 mg/kg, po; type: ADME, organism-based, Macaca mulatta; settings: rhesus monkey, in vivo
[46] = Volume of distribution at steady state in dog at 0.1 mg/kg, iv; type: ADME, organism-based, Canis lupus familiaris; settings: in vivo, read-out: Vdss
[47] = Unbound hepatic clearance in rat liver microsomes; type: ADME, Microsome
[48] = Half life in rat at 1 mg/kg, po; type: ADME, organism-based; settings: in vivo

Tmax [1]: 2.8 h
FaFg [2]: 87
half-life [3]: 2.8 h
half-life [4]: 4.2 h
half-life [5]: 4.4 h
IC50 [6]: 1.6 µM
AUC [7]: 14 ng·h/mL
FaFg [8]: 52
clearance [9]: 11.2 mL/min/kg
Cmax [10]: 5 ng/mL
CL free [11]: 750 mL/min/kg
FaFg [12]: 81
AUC [13]: 500 ng·h/mL
AUC [14]: 1050 ng·h/mL
Papp [15]: 2 ×10⁻⁶ cm/s
clearance [16]: 25.7 mL/min/kg
Ki [17]: 0.917 µM
bioavailability [18]: 24%
AUC [19]: 200 ng·h/mL
Vd [20]: 1.3 L/kg
Ki [21]: 0.001 µM
half-life [22]: 2.9 h
AUC [23]: 460 ng·h/mL
Tmax [24]: 1.5 h
CL free [25]: 143 mL/min/kg
AUC [26]: 120 ng·h/mL
half-life [27]: 3 h
Vd [28]: 5.3 L/kg
Tmax [29]: 7.5 min
bioavailability [30]: 7%
half-life [31]: 2 h
Tmax [32]: 6 min
Cmax [33]: 116 ng/mL
AUC [34]: 3800 ng·h/mL
Cmax [35]: 12 ng/mL
bioavailability [36]: 77%
IC50 [37]: 0.0067 µM
AUC [38]: 2350 ng·h/mL
Vd [39]: 3.4 L/kg
FaFg [40]: 19
clearance [41]: 4 mL/min/kg
Cmax [42]: 210 ng/mL
clearance [43]: 4.83 mL/min/kg
bioavailability [44]: 58%
half-life [45]: 2.5 h
Vd [46]: 1.5 L/kg
CL free [47]: 200 mL/min/kg
half-life [48]: 3.4 h
SMILES: CCNC(=O)c1cc2c(-c3cc(C(C)(C)O)ccc3Oc3c(C)cc(F)cc3C)cn(C)c(=O)c2[nH]1 [ABBV-744]
